Key:
[1] = system: NOD mice; experiment: Insulitis development in NOD mice (pancreatic histology); type: in vivo, mouse
From the text: NOD (non-obese diabetes) mice is an experimental model of spontaneous resembling human Type I (insulin-dependent) diabetes, which results from the progressive islet invasion and beta cells destruction by autoreactive T cells. This spontaneous diabetes model offers a unique opportunity of studying the autoreactive T cells involved in the process of beta cell destruction and of settling preventive strategies before clinical onset of the disease. Non fasted mice were killed two days after the last administration of compounds. Pancreatic glands were excised and processed for conventional histological studies after fixation in Bouin's alcoholic solution. Five μm sections were stained with haematoxylin-eosin as described previously by Thivolet C. H. et al., 1991, Diabetologia, 34, 314-319. The evolution of insulitis was analysed in pancreas. […] State 4 was not observed in 8 weeks old mice, this state appeared at around 9-10 weeks. NOD mice of 4 weeks old have been treated for 4 weeks (5 days/7) with vehicle or GW3965 at 50 mg/kg. Pancreatic histological studies have been carried out as described above.

[2] = system: NOD mice; experiment: Regeneration of beta cells in NOD mice (pancreatic histology); type: in vivo, mouse; conditions: NOD mice of 4 weeks old, 50 mg/kg for 4 weeks (5 days/7)
From the text: NOD (non-obese diabetes) mice is an experimental model of spontaneous resembling human Type I (insulin-dependent) diabetes, which results from the progressive islet invasion and beta cells destruction by autoreactive T cells. This spontaneous diabetes model offers a unique opportunity of studying the autoreactive T cells involved in the process of beta cell destruction and of settling preventive strategies before clinical onset of the disease. Non fasted mice were killed two days after the last administration of compounds. Pancreatic glands were excised and processed for conventional histological studies after fixation in Bouin's alcoholic solution. Five μm sections were stained with haematoxylin-eosin as described previously by Thivolet C. H. et al., 1991, Diabetologia, 34, 314-319. NOD mice of 4 weeks old have been treated for 4 weeks (5 days/7) with vehicle or GW3965 at 50 mg/kg. Pancreatic histological studies have been carried out as described above.

[3] = system: male Zucker Diabetic Fatty fa/fa (ZDF) rat; experiment: Plasma glucose in ZDF rats during and after 3 weeks of oral treatment; type: in vivo
From the text: The male Zucker Diabetic Fatty fa/fa (ZDF) rat is a model of Type II diabetes. The rats are insulin resistant but normoglycemic from birth and they develop diabetes from about week 7 to week 10 of age. During the transitional period, the animals go through a state of impaired glucose tolerance. Although the animals are hyperinsulinemic before diabetes onset and during the early stages of diabetes, they later lose glucose-stimulated insulin secretion and finally become almost completely insulinopenic. Male ZDF fa/fa and ZDF fa+ rats were obtained from Genetic Models (Indianapolis, Ind.), at the age of 6 weeks and used in the experiments at 12 weeks of age, after 3 weeks of oral treatment with vehicle or GW3965 (10 mg/kg). Compounds were given once daily (at 17 h) via oral gavage. At the time of their use, the ZDF fa/fa rats weighed 310-350 g, whereas the age-matched ZDF fa+ rats weighed 245-285 g. ZDF fa+ and ZDF fa/fa animals had free access to diabetogenic chow (Purina 5008). Animals were housed 5 per cage in a temperature and humidity-controlled room with a 12/12-h light-dark cycle. Blood samples were taken 16 h after compound administration via the tail vein and measured on a Konelab 300 (Labsystem) clinical chemistry analyzer. At the beginning of the study, glycemia was similar in vehicle- and GW3965-treated ZDF rats.

[4] = system: pancreatic sections; experiment: Apoptosis by TUNEL staining on pancreatic sections; type: in vivo, rat; conditions: 8 weeks-old ZDF rats, 10 mg/kg for 4 weeks, vehicle 4.55±1.29%, p<0.05
Method: Islet cell apoptosis was determined by transferase-mediated dUTP nick-end labeling (TUNEL) staining. Cell death was identified by 3′ in situ end labeling of fragmented DNA with biotinylated deoxyuridine-triphosphate. Each pancreatic piece was cut throughout its length into 5 μm thick sections, which were collected on gelatin-coated slides. Four sections at regular intervals were picked in both head and tail pieces. After digestion with Proteinase K (2 μg/ml; Sigma), sections were consecutively washed in TdT buffer (0.5 mol/l cacodylate [pH 6.8], 1 mmol/l cobalt chloride, 0.15 mol/l NaCl) and then incubated at 37° C. with TdT (25U; Boehringer-Mannheim, Mannheim, Germany) and biotinylated dUTP (1 nmol/μl). After washing in TB buffer (300 mmol/l NaCl, 30 mmol/l sodium citrate) to terminate the reaction, incorporation of biotinylated dUTP was detected by a modification of the avidin-biotin complex method. Horseradish peroxidise-conjugated streptavidin-biotin complex was applied (Vector Laboratories). The sections were then developed using DAB as chromogen and lightly counterstained with hematoxylin and mounted in dePex (BDH Laboratory, Poole, England).
Apoptosis have also been estimated using the TUNEL staining method on pancreatic sections of 5 animals of 8 weeks-old ZDF rats treated with GW3965 at 10 mg/kg for 4 weeks.

[5] = system: PDX1 mRNA; experiment: Real-time quantitative RT-PCR of PDX1 in isolated islets of treated ZDF rats; type: in vivo, rat; conditions: normalized to 18S rRNA, vehicle ZDF 0.17, fa+ 0.38±0.21
Method: Pancreatic and duodenal homeobox gene 1, Pdx1 (Genbank: NM_022852) and facilitated glucose transporter, member 2, Glut2 (Genbank: NM_012879) gene expression were measured by real time quantitative RT-PCR. Total RNAs from fresh isolated rat pancreatic islets were prepared using Rneasy 96 Kit according to the manufacturer's protocol (Qiagen, France), treated with Dnase I to remove contaminating DNA (Stratagene, France), and quantified using the iScript cDNA Synthesis and iQ SYBR Green Supermix kits (Biorad, france). Real-time quantitative RT-PCR was performed using the iCycler Detection System instrument and software (Bio-Rad). As the predicted size of the amplified cDNAs and the Tm values for the primers were similar, uniform amplification conditions were applied (ie. annealing at 60° C.). Specificity of amplified products was monitored by performing melting curves at the end of each amplification. Expression levels were quantified (total RNA units) by generating a six-point serial standard curve. RNA samples were normalized for comparison by determining 18S rRNA levels. In this example, the mRNA expression of PDX1 and Glut2 was determined. As previously described, PDX1 and Glut2 are markers of the regeneration of beta cells. […] PDX1 and Glut2 mRNA expression was increased in islets isolated from GW3965-compared to vehicle-treated ZDF rats. […]

## O=C(O)Cc1cccc(OCCCN(Cc2cccc(C(F)(F)F)c2Cl)CC(c2ccccc2)c2ccccc2)c1 [GW3965]
[1]; NOD mice of 4 weeks old, 50 mg/kg for 4 weeks (5 days/7), control 32%
  normal islets in the pancreas: 94%
[1]; NOD mice, 50 mg/kg for 4 weeks, pancreatic sections
  insulitis (lymphocytes infiltration): appears protected against the lymphocytes infiltration
[2]
  regeneration of beta cells (formation of new islets): formation of new islets
[3]; 10 mg/kg oral once daily, day 6 to day 21, vs vehicle
  plasma glucose (glycemia) during treatment: significantly prevented this rise and maintained glycemia at low level
[3]; after 21 days of treatment
  glycemia and HbA1c: significant decrease
[3]; day 44, no treatment from day 21, previously 10 mg/kg oral for 3 weeks
  glycemia after the end of treatment: still significantly reduced
[4]
  % of apoptosis by TUNEL staining: 1.41±0.96%
[5]
  PDX1 mRNA expression: 0.35±0.11

From US8030335B2, “Use of liver X receptor agonists” (Laboratoires Fournier S.A., priority 2005, dated 2011)
